Results from US6649367B2, “Human cancer cell line malignantly altered by expression of angiogenic factor” (Eisai Co., Ltd, priority 2001, dated 2003).

Test system: KP-1/VEGF cells
Assay: Effect on in vivo angiogenesis induced by KP-1/VEGF (chamber transplanted in mouse dorsal air sac, 51Cr-labelled blood cells)
Settings: for In vivo angiogenesis-inducing activity (volume of blood vessel): C57BL/6N mouse, KP-1/VEGF chamber, four days after transplantation; for In vivo angiogenesis inhibitory effect: =(X−B)/(A−B)×100, A control, B collagen, X administered group
Description: 3×10^6 cells/0.17 ml suspension of KP-1/VEGF cells was prepared using a collagen solution. In a chamber formed by adhering 0.45-μm Durapore filter membrane (Millipore) to a chamber ring (Millipore), 0.17 ml of the suspension was injected through the injection inlet and sealed. An air sac of about 10 ml was formed on dorsal subcutaneous portion of a 6-week-old female C57BL/6N mouse under anesthesia and the chamber enclosing the cells therein was transplanted in the air sac.
From the day of transplantation, ZD6474 as a VEGFR kinase inhibitor and ZD1839(Iressa) as an EGFR kinase inhibitor were each orally administered in dosage of 25, 50 or 100 mg/kg once a day for 4 days.
Four days after the transplantation, 2,500,000 cpm/ml of blood cell suspension prepared by labeling the cells with sodium chromate (^51Cr) (Amersham Pharmacia) was injected in an amount of 0.2 ml each through the tail vein of the chamber-transplanted mouse, and then the skin portion contacting the chamber was cut out and the radioactivity thereof was measured by use of a γ-counter. From the measured radioactivity, the amount of blood (volume of blood vessel) was calculated and was used as an index of in vivo angiogenesis-inducing activity.
Further, providing that the in vivo angiogenesis-inducing activity of control is A, the in vivo angiogenesis-inducing activity of collagen is B, and the in vivo angiogenesis-inducing activity of each administered group is X, in vivo angiogenesis inhibitory effect was obtained by the following equation. In vivo angiogenesis inhibitory effect (%)

[1] = 25 mg/kg orally once a day for 4 days
[2] = 50 mg/kg orally once a day for 4 days
[3] = 100 mg/kg orally once a day for 4 days

SMILES	In vivo angiogenesis-inducing activity (volume of blood vessel) [1]	In vivo angiogenesis-inducing activity (volume of blood vessel) [2]	In vivo angiogenesis-inducing activity (volume of blood vessel) [3]	In vivo angiogenesis inhibitory effect [1]	In vivo angiogenesis inhibitory effect [2]	In vivo angiogenesis inhibitory effect [3]
COc1cc2ncnc(Nc3ccc(F)c(Cl)c3)c2cc1OCCCN1CCOCC1 [ZD1839]	2.75 ± 0.66 µL	2.77 ± 0.47 µL	2.76 ± 0.73 µL			
COc1cc2c(Nc3ccc(Br)cc3F)ncnc2cc1OCC1CCN(C)CC1 [ZD6474]	2.56 ± 0.26 µL	2.18 ± 0.38 µL	1.47 ± 0.40 µL	68.0%	40.8%	−10.9%
